We go through 2 molecules from patent publication US4694011A, “Novel 7-hydroxy-indoles” (Roussel Uclaf, priority 1985, dated 1987).

Structures are written as SMILES.

One series concerns mice. The series can be described thus: Acute toxicity. It is filed as in vivo. To be noted: oral administration. On the procedure: The lethal doses LD50 of the different compounds tested were evaluated after oral administration to mice and LD0 is the maximum dose not causing any mortality in 8 days.
Series [1] concerns force of cardiac contraction. The series can be described thus: Positive inotropic activity. Particulars: 10 to 100 mg/kg. In kind it is in vivo, rat (Sprague-Dawley). On the procedure: E. Positive inotropic activity
Rats of Sprague-Dawley strain weighing 300 to 350 g were anesthetized with pentobarbital (50 mg/kg by intraperitoneal injection) and a catheter was placed in the left ventricle to measure the cardiac intraventricular pressure and the dP/dt VG (or rate of variation of the intraventricular pressure). A second arterial catheter placed in the femoral artery enabled the systemic arterial pressure and the cardiac frequency to be registered. The test products and the possible antagonists were injected by a catheter placed in a jugular vein. This model enabled the effect of various substances on the force of cardiac contraction to be evaluated in vivo as a function of the dose and the time.

Series [2] relates to pressure responses to the electrical stimulation. The series can be described thus: Presynaptic activity at the vascular level. It is filed as in vivo, rat (Sprague-Dawley). To be noted: demedullated Sprague-Dawley rats. On the procedure:
F. Presynaptic activity at the vascular level
Rats of Sprague-Dawley strain weighing 320-350 g were anesthetized with pentobarbital (50 mg/kg by intraperitoneal injection) and after insertion of a carotidien catheter to measure the arterial pressure and a jugular catheter for the injection of the test compounds, the animals were demedullated with a stainless steel rod introduced by the right orbitary orifice. This rod was insulated along its length with the exception of the last five centimeters. As soon as the medulla was destroyed, the animals were placed under assisted respiration. After a period of rest of about 20 minutes, the animals were submitted to electrical stimulations applied between the demedullation rod and a neutral electrode placed under the skin in the thigh region with impulses of 2 msec., frequency of 10 Hz and amplitude of about 20 V for 30 sec. for 5 minutes each. […] The addition of appropriate blockers and the combination of this technique with the modification of dose-response curves to vasoconstricting agents such as noradrenaline enabled the pharmacological profile of the test compound to be determined.

The test system of series [3] is average arterial pressure. The series can be described thus: Test for direct vasodilatory activity of vascular relaxing postsynaptic activity (demedullated rats, angiotensine II). It is filed as in vivo, rat (Sprague-Dawley). On the procedure:
D. Test for Direct Vasodilatary Activity of Vascular Relaxing Postsynaptic-activity
Rats of the Sprague-Dawley strain weighing 320-350 g were anesthetized with pentobarbital (50 mg/kg by intraperitoneal injection) and after the positioning of a carotidien catheter to measure the arterial pressure and a jugular catheter for the injection of the test compounds and possible antagonists, the animals were demedullated with a steel rod. This rod was introduced by the right orbital orifice and descended the length of the spinal cord. The animals were then immediately placed under assisted respiration and a few minutes after the arterial pressure was stabilized, the animals received an intravenous perfusion of angiotensine II of […] to increase their average pressure by about 100 mm of mercury. After a plateau was reached, the test substance was injected intravenously every 2 minutes and in cumulated doses. The percentage drop in the average arterial pressure obtained enabled a dose-response curve to be traced reflecting the vasodilatary activity of the compound studied. The preliminary treatment of the animals with different antagonists enabled the mechanism of action of the compound to be determined. The products were tested between 0.001 and 1 mg/kg and Domperidone and propanolol were used as antagonists.

In series [4] the test system is dopaminergic stimulating activity at the central level. The series can be described thus: Rotation behavior after unilateral lesion of the nigra-striated bundle by 6-hydroxydopamine. In kind it is in vivo, rat. To be noted: male rats, intraperitoneal, 5 mg/kg. On the procedure:
A. Rotation behavior after unilateral lesion of the nigra-striated bundle by 6-hydroxydopamine
Male rats weighing about 220 g were injured in the nigra-striated dopaminergic bundle by Ungerstedt's method [Acta physiol. Scand. 1971, Vol. 82 suppl. p. 367-69 93] modified by unilateral injection of 9.2 μg of 6-hydroxydopamine hydrochloride in solution in 4 μl of physiological solution containing 0.5 mg/ml of ascorbic acid. The test products were administered intraperitoneally and the animals treated, on average 6, were placed individually in a rotometer which enabled the counting of the number of rotations carried out by each animal in the opposite direction to the injured side.

Series [5] concerns dopaminergic agonist action at the central level. The series can be described thus: Stereotype behavior. It is filed as in vivo, rat. Particulars: male rats, intraperitoneal, 50 mg/kg. As for the experimental part: The tests were carried out on groups of 5 male rats weighing 150 to 180 g and each animal was placed individually in a barred cage (29×25×17 cm) containing a few wood shavings. The test product was administered intraperitoneally and the behavior of the animals was noted every half-hour for 5 hours with the rating of Halliwell et al [Brit. J. Pharmacol. 1964, Vol. 23, 330-350]. The animal was asleep (0), it was awake but immobile (1), it turned in the cage (2), it sniffed the cover (3), it licks the walls (4), it touched the wood shavings or the bars of the cage with its teeth (5), it bit the shavings or the bars of the cage (6).

Another series deals with arterial pressure. The series can be described thus: Hypotensive activity (arterial pressure, anesthetized rats). In kind it is in vivo, rat (WISTAR). To be noted: male WISTAR rats anesthetized with nembutal, intravenous, 1 mg/kg. On the procedure: The hypotensive activity was studied on male rats of the WISTAR strain weighing about 300 g and anesthetized with nembutal (50 mg/kg by intraperitoneal route). The product tested was administered intravenously into the jugular vein and the carotidien arterial pressure was measured before and after administration of the product tested.

[6] abbreviates: anesthetized Sprague-Dawley rats, jugular vein.

Regarding `Br.CCCN1CCCC(c2ccc(O)c3c2CC(=O)N3)C1` (stereo not shown) [Example 4, 1,3-dihydro-7-hydroxy-4-(1-propyl-3-piperidinyl)-2H-indol-2-one hydrobromide], in the series on mice, the “LD0 (maximum dose not causing any mortality in 8 days)” value is recorded as 400 mg/kg.
On to `Br.O=C1Cc2c(C3CCCNC3)ccc(O)c2N1` (stereo not shown) [Example 3, 1,3-dihydro-7-hydroxy-4-(3-piperidinyl)-2H-indol-2-one hydrobromide], for which the “positive inotropic effect (conclusion)” value in series [1] is “possessed positive inotropic properties”. In addition, in series [1] (with propanolol), the “blockade by propanolol of the increase of dP/dt and maximal ventricular pressure” value is “not otherwise blocked by propanolol”. For the same molecule, in series [1] (setting [6]), the “dP/dt (rate of variation of the intraventricular pressure)” value is given as “increase of the dP/dt”; the maximal ventricular pressure entry was “increase of the dP/dt and of the maximal ventricular pressure”. For the same molecule, the “site of action linked to the reduction of the responses” value in series [2] is listed as “essentially post-synaptic activity”. The “pressure responses to the electrical stimulation” value in series [2] (intravenous) is reported as “reduction of the responses”. In series [2] (with sulpiride), the “blockade by sulpiride of the reduction of the responses” value is “not blocked by sulpiride”. In series [3] (Domperidone and propanolol used as antagonists), the “origin of the vasodilator effect (mechanism)” value was “of dopaminergic and α-adrenergic origin”. Further, in series [3] (Rattus norvegicus, demedullated Sprague-Dawley rats, angiotensine II perfusion, intravenous cumulated doses, tested between 0.001 and 1 mg/kg, read-out: dose from which a dose dependent vasodilator effect occurs), the minimal effective dose was at least 0.001 mg/kg. Also, in the series on mice, the “LD0 (maximum dose not causing any mortality in 8 days)” value stood at 400 mg/kg. Besides, in series [4], the “central dopaminergic stimulating activity (conclusion from rotation test)” value is “substantially deprived of dopaminergic stimulating activity at the central level”. Further, the “rotations in the opposite direction to the injured side” value in series [4] (at least ninety minutes) is on record as “practically no rotations”. The “central dopaminergic agonist action (conclusion from stereotype test)” value in series [5] was “substantially deprived of dopaminergic agonist action at the central level”. Besides, the stereotype movements result in series [5] (noted every half-hour for 5 hours) was “practically no stereotype movements”. Further, the “effect on carotidien arterial pressure” value with arterial pressure is recorded as “slight effect on the arterial pressure”.
